# In patent publication US5571804A, “Cephalosporin antibiotics” (priority 1993, dated 1996):
# Key:
# [1] = tested on: Klebsiella aerogenes SHV-1 1976E; assay: MIC, two-fold agar dilution; assay type: cell-based; settings: Muller-Hinton agar, 37° C., 20 hours
# E. coli TEM3 3455E = assay: MIC, two-fold agar dilution; assay type: cell-based; settings: Muller-Hinton agar, 37° C., 20 hours
# [2] = tested on: Staphylococcus epidermidis 887E; assay: MIC, two-fold agar dilution; assay type: cell-based; settings: Muller-Hinton agar, 37° C., 20 hours
# E. coli 10536 = assay: MIC, two-fold agar dilution; assay type: cell-based; settings: Muller-Hinton agar, 37° C., 20 hours
# Staphylococcus aureus 77 = assay: MIC, two-fold agar dilution; assay type: cell-based; settings: Muller-Hinton agar, 37° C., 20 hours
# E. coli TEM9 2639E = assay: MIC, two-fold agar dilution; assay type: cell-based; settings: Muller-Hinton agar, 37° C., 20 hours
# Proteus vularis 6059A = assay: MIC, two-fold agar dilution; assay type: cell-based; settings: Muller-Hinton agar, 37° C., 20 hours
# [3] = pharmakinetic variables in SD rats; settings: rat, in vivo, iv, 20 mg/kg
# Protocol: The pharmakinetic variables were determined using SD rats (.male.) of a body weight of 230±10g as follows. The "S" compound of each of the Examples was injected to femoral vein of 4-5 rats by 20mg/Kg and then blood was collected from femoral artery in 1, 2.5, 5, 10, 20, 40, 60 and 120 min.
# [4] = tested on: Enterobacter cloacae IND + VE 1194E; assay: MIC, two-fold agar dilution; assay type: cell-based; settings: Muller-Hinton agar, 37° C., 20 hours
# [5] = tested on: Salmonella typhimurium 14028A; assay: MIC, two-fold agar dilution; assay type: cell-based; settings: Muller-Hinton agar, 37° C., 20 hours
# [6] = tested on: Staphylococcus aureus 241; assay: MIC, two-fold agar dilution; assay type: cell-based; settings: Muller-Hinton agar, 37° C., 20 hours
# [7] = tested on: Pseudomonas aeruginosa 10145; assay: MIC, two-fold agar dilution; assay type: cell-based; settings: Muller-Hinton agar, 37° C., 20 hours
# [8] = tested on: Citrobacter diversus 2046E; assay: MIC, two-fold agar dilution; assay type: cell-based; settings: Muller-Hinton agar, 37° C., 20 hours
# [9] = tested on: Klebsiella aerogenes K1 + 1082E; assay: MIC, two-fold agar dilution; assay type: cell-based; settings: Muller-Hinton agar, 37° C., 20 hours
# E. coli 3190Y = assay: MIC, two-fold agar dilution; assay type: cell-based; settings: Muller-Hinton agar, 37° C., 20 hours
# E. coli 851E = assay: MIC, two-fold agar dilution; assay type: cell-based; settings: Muller-Hinton agar, 37° C., 20 hours
# E. coli TEM7 3457E = assay: MIC, two-fold agar dilution; assay type: cell-based; settings: Muller-Hinton agar, 37° C., 20 hours
# [10] = tested on: Staphylococcus aureus giorgio; assay: MIC, two-fold agar dilution; assay type: cell-based; settings: Muller-Hinton agar, 37° C., 20 hours
# [11] = tested on: Staphylococcus aureus 6538P; assay: MIC, two-fold agar dilution; assay type: cell-based; settings: Muller-Hinton agar, 37° C., 20 hours
# [12] = tested on: Streptococcus laecalis 29212A; assay: MIC, two-fold agar dilution; assay type: cell-based; settings: Muller-Hinton agar, 37° C., 20 hours
# [13] = tested on: Acinetobacter calcoaceticus 15473A; assay: MIC, two-fold agar dilution; assay type: cell-based; settings: Muller-Hinton agar, 37° C., 20 hours
# [14] = tested on: Pseudomonas aeruginosa 1912E; assay: MIC, two-fold agar dilution; assay type: cell-based; settings: Muller-Hinton agar, 37° C., 20 hours
# [15] = tested on: Serratia marcescens 1826E; assay: MIC, two-fold agar dilution; assay type: cell-based; settings: Muller-Hinton agar, 37° C., 20 hours
# E. coli TEM5 3739E = assay: MIC, two-fold agar dilution; assay type: cell-based; settings: Muller-Hinton agar, 37° C., 20 hours
# Enterobacter cloacae P99 = assay: MIC, two-fold agar dilution; assay type: cell-based; settings: Muller-Hinton agar, 37° C., 20 hours
# [16] = tested on: Pseudomonas aeruginosa 6065; assay: MIC, two-fold agar dilution; assay type: cell-based; settings: Muller-Hinton agar, 37° C., 20 hours
# E. coli TEM1 1193E = assay: MIC, two-fold agar dilution; assay type: cell-based; settings: Muller-Hinton agar, 37° C., 20 hours
SMILES,minimal inhibitory concentration (MIC) [1],minimal inhibitory concentration (MIC) (E. coli TEM3 3455E),minimal inhibitory concentration (MIC) [2],minimal inhibitory concentration (MIC) (E. coli 10536),minimal inhibitory concentration (MIC) (Staphylococcus aureus 77),minimal inhibitory concentration (MIC) (E. coli TEM9 2639E),minimal inhibitory concentration (MIC) (Proteus vularis 6059A),AUC at 2 h [3] [ng·h/mL],half-life [3] [min],minimal inhibitory concentration (MIC) [4],minimal inhibitory concentration (MIC) [5],minimal inhibitory concentration (MIC) [6],minimal inhibitory concentration (MIC) [7],minimal inhibitory concentration (MIC) [8],minimal inhibitory concentration (MIC) [9],minimal inhibitory concentration (MIC) (E. coli 3190Y),minimal inhibitory concentration (MIC) (E. coli 851E),minimal inhibitory concentration (MIC) (E. coli TEM7 3457E),minimal inhibitory concentration (MIC) [10],minimal inhibitory concentration (MIC) [11],also measured
"Nc1ccnc(SCC2=C(C(=O)O)N3C(=O)[C@@H](NC(=O)/C(=N\O[C@H](C(=O)O)c4ccc(O)c(O)c4)c4csc(N)n4)[C@H]3SC2)n1 [Compound I-3S, 7-[(Z)-2-(aminothiazol-4-yl)-2-(α-carboxyl-3,4-dihydroxybenzyloxyimino)acetamido]-3-(4-amino-pyrimidine-2-yl) thiomethyl-3-cephem-4-carboxylate]",0.13,0.016,32,≤ 0.008,4,0.25,0.13,57900,58,2,0.016,128,0.13,0.031,0.031,0.031,0.063,0.063,1,2,minimal inhibitory concentration (MIC) [12]: 4; minimal inhibitory concentration (MIC) [13]: 0.13; minimal inhibitory concentration (MIC) [14]: 0.25; minimal inhibitory concentration (MIC) [15]: 0.25; minimal inhibitory concentration (MIC) (E. coli TEM5 3739E): 0.063; minimal inhibitory concentration (MIC) (Enterobacter cloacae P99): 8; minimal inhibitory concentration (MIC) [16]: 0.5; minimal inhibitory concentration (MIC) (E. coli TEM1 1193E): 0.031
"Nc1nc(/C(=N/O[C@H](C(=O)O)c2ccc(O)c(O)c2)C(=O)N[C@@H]2C(=O)N3C(C(=O)O)=C(CSc4nc(N)c5c(n4)CCC5)CS[C@H]23)cs1 [Compound I-4S, 7-[(Z)-2-(aminothiazol-4-yl)-2-(α-carboxyl-3,4-dihydroxybenzyioxyimino)acetamido]-3-(4-amino-5,6-cyclopentapyrimidine-2-yl)thiomethyl-3-cephem-4-carboxylate]",0.13,0.016,32,≤ 0.008,8,0.25,0.13,55500,57,2,0.016,64,0.13,0.063,0.031,0.031,0.031,≤ 0.008,1,1,minimal inhibitory concentration (MIC) [12]: 4; minimal inhibitory concentration (MIC) [13]: 0.13; minimal inhibitory concentration (MIC) [14]: 0.25; minimal inhibitory concentration (MIC) [15]: 0.25; minimal inhibitory concentration (MIC) (E. coli TEM5 3739E): 0.063; minimal inhibitory concentration (MIC) (Enterobacter cloacae P99): 8; minimal inhibitory concentration (MIC) [16]: 0.13; minimal inhibitory concentration (MIC) (E. coli TEM1 1193E): 0.063
"Nc1nc(/C(=N/O[C@H](C(=O)O)c2ccc(O)c(O)c2)C(=O)N[C@@H]2C(=O)N3C(C(=O)O)=C(CSc4nc(N)c(N)c(N)n4)CS[C@H]23)cs1 [Compound I-5S, 7-[(Z)-2-(aminothiazol-4-yl)-2-(α-carboxy-3,4-dihydroxybenzyloxyimino)acetamido]-3-(4,5,6-triaminopyrimidine-2-yl)thiomethyl-3-cephem-4-carboxylate]",0.13,0.016,32,≤ 0.008,8,0.25,0.13,59500,59,2,0.016,64,0.13,0.063,0.031,0.031,0.031,≤ 0.008,1,2,minimal inhibitory concentration (MIC) [12]: 4; minimal inhibitory concentration (MIC) [13]: 0.13; minimal inhibitory concentration (MIC) [14]: 0.25; minimal inhibitory concentration (MIC) [15]: 0.25; minimal inhibitory concentration (MIC) (E. coli TEM5 3739E): 0.063; minimal inhibitory concentration (MIC) (Enterobacter cloacae P99): 8; minimal inhibitory concentration (MIC) [16]: 0.25; minimal inhibitory concentration (MIC) (E. coli TEM1 1193E): 0.031
"Nc1cc(SCC2=C(C(=O)O)N3C(=O)[C@@H](NC(=O)/C(=N\O[C@H](C(=O)O)c4ccc(O)c(O)c4)c4csc(N)n4)[C@H]3SC2)ncn1 [Compound I-7S, 7[-(Z)-2-(aminothiazol-4-yl)-2-(α-carboxy-3,4-dihydroxybenzyloxyimino)acetamido]-3-(6-amino-pyrimidine-4-yl)thiomethyl-3cephem-4-carboxylate]",0.25,0.016,32,≤ 0.008,4,0.13,0.25,60000,59,2,0.016,64,0.25,0.063,0.063,0.031,0.063,0.016,1,2,minimal inhibitory concentration (MIC) [12]: 2; minimal inhibitory concentration (MIC) [13]: 0.13; minimal inhibitory concentration (MIC) [14]: 0.25; minimal inhibitory concentration (MIC) [15]: 0.25; minimal inhibitory concentration (MIC) (E. coli TEM5 3739E): 0.063; minimal inhibitory concentration (MIC) (Enterobacter cloacae P99): 8; minimal inhibitory concentration (MIC) [16]: 0.5; minimal inhibitory concentration (MIC) (E. coli TEM1 1193E): 0.063
